Reference: US8791155B2, “Chroman derivatives” (Edison Pharmaceuticals, Inc., priority 2003, dated 2014)

How the values were obtained:
[1] = target: T1, porcine leukocyte 12/15-lipoxygenase (Sus scrofa, UniProt P16469); experiment: 12/15-Lipoxygenase enzyme assay; type: biochemical; conditions: 70 μM arachidonic acid, pH 7.4, 10 minute incubation; read-out: IC50, inhibition of 12/15-Lipoxygenase
T1 construct: purchased Cayman 60300
T1 sequence (P16469 1-663): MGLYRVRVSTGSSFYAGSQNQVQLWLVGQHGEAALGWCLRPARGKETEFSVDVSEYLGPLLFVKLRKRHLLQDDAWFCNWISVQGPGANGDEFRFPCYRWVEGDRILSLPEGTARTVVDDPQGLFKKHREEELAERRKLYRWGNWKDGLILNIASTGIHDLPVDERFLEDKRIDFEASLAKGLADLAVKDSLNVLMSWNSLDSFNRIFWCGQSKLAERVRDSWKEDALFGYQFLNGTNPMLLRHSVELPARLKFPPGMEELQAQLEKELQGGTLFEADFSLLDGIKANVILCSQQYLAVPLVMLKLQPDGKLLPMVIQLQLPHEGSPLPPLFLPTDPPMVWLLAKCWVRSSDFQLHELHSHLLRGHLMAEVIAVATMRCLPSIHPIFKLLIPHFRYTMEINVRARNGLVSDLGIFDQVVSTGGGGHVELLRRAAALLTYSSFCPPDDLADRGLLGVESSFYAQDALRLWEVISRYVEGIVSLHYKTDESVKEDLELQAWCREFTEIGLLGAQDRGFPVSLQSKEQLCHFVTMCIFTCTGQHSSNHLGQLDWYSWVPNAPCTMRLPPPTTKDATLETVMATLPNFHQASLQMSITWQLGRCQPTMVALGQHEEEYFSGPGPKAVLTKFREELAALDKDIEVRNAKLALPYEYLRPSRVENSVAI
Excerpt: (§1) In vitro evaluation of the ability of a composition to inhibit the enzymes 5-lipoxygenase, 15-lipoxygenase, or 12/15 lipoxygenase as described in Walidge, N. B. et al Anal. Biochem., 231: 354-358 (1995) using a high throughput colorimetric method; as well as in vitro evaluation of inhibiting LTB4 is described in Examples.
This procedure was used for measuring the enzymatic activity of porcine leukocyte 12/15-lipoxygenase using a colorimetric method based on the ferric oxidation of xylenol orange.
(§2) • 96 well flat bottom microfilter plates (VWR, Catalog #62402-933 9295) • Lipoxygenase screening assay buffer (Cayman, Catalog #760710) • Porcine leukocyte 12/15-lipoxygenase (Cayman, Catalog #60300) • Arachidonic Acid (Sigma, Catalog #A3555) • Xylenol orange tetrasodium salt (Aldrich, Catalog #227854) • Iron (II) sulfate heptahydrate (Sigma, Catalog #F7002) • Sulfuric acid (95-98%) [18M] • Methanol Procedure
(§3) Porcine Leukocyte 12/15-lipoxygenase (Cayman Cat #60300) was used in this assay. Test compound and/or vehicle was added to 1.3 U 12/15-lipoxygenase in 50 mM Tris-HCl buffer, pH 7.4. The reaction was initiated by addition of 70 μM arachidonic acid in Tris-HCl buffer, pH 7.4, and terminated after a 10 minute incubation at room temperature by addition of FOX reagent (25 mM sulphuric acid, 100 μM xylenol orange, 100 μM iron (II) sulphate, methanol:water 9:1). The yellow color of acidified xylenol orange was converted to a blue color by the lipid hydroperoxide-mediated oxidation of Fe 2+ ions and the interaction of the resulting Fe 3+ ions with the dye. The complex was allowed to form during a 1 hour incubation at room temperature with shaking. Absorbance of the Fe 3+ complex was then measured at […] using a spectrophotometer.
(§4) Negative controls contained enzyme during the incubation step but substrate was not added until after the FOX reagent.
Compounds are screened at 5 concentrations in triplicate starting at 10 μM

[2] = tested on: release of the leukotriene LTB4 from MPRO cell line; experiment: LTB4 assay (competitive ELISA); type: cell-based; conditions: Mus musculus; 1 μM calcium ionophore A23187, 1 hour; read-out: EC50, inhibition of LTB4 production
Excerpt: This procedure was used for measuring the release of the leukotriene LTB4 from a neutrophil cell line using a competitive ELISA technique.
• MPRO cell line (ATCC, Catalog #CRL-11422) • Calciumionophore (A23187) (Sigma, Catalog #C7522) • Nordihydroguaiaretic acid (NDGA) (BioMol, Catalog #E1101-0001) • Retinoic Acid (all-trans) (ATRA) (Sigma, Catalog #95152) • Sterile, tissue-culture treated 96-well plates (Corning, Catalog #3614) Materials for LTB4 ELISA • Precoated (Mouse Anti-Rabbit IgG) EIA 96 Well Strip Plates (Cayman, Catalog #400004) • Leukotriene B4 AChE Tracer (Cayman Catalog #420110) • Leukotriene B4 EIA Antiserum (Cayman Catalog #420112) • Ellman's Reagent (Cayman Catalog #400050) • EIA Buffer Concentrate (10×) (Cayman Catalog #400060) • Wash Buffer Concentrate (400×) (Cayman Catalog #400062) • Plastic plate covers (Cayman Catalog #400012) Procedure
A mouse promyelocytic cell line (MPRO) was used in this assay. These cells are committed immature neutrophils that can be differentiated into mature neutrophils by treatment with 10 μM all-trans retinoic acid for 72 hours
Following 72 hours of differentiation, cells were stimulated with 1 μM of a calcium ionophore (A23187) in the presence or absence of test compound or vehicle for 1 hour at 370 C. After this time, supernatant was removed from the cells and the LTB4 levels were determined following manufacturer's instructions, using a Leukotriene B4 EIA kit from Cayman (Cat #520111)
The negative controls were media samples from differentiated but unstimulated cells.
The compounds were screened at 5 concentrations in quadruplicate starting at 10 μM

[3] = target: T2, human recombinant 5-lipoxygenase (Homo sapiens, UniProt P09917); experiment: 5-Lipoxygenase enzyme assay; type: biochemical; conditions: 70 μM arachidonic acid, pH 7.4, 10 minute incubation; read-out: IC50, inhibition of 5-Lipoxygenase
T2 construct: purchased Cayman 60402
T2 sequence (P09917 1-674): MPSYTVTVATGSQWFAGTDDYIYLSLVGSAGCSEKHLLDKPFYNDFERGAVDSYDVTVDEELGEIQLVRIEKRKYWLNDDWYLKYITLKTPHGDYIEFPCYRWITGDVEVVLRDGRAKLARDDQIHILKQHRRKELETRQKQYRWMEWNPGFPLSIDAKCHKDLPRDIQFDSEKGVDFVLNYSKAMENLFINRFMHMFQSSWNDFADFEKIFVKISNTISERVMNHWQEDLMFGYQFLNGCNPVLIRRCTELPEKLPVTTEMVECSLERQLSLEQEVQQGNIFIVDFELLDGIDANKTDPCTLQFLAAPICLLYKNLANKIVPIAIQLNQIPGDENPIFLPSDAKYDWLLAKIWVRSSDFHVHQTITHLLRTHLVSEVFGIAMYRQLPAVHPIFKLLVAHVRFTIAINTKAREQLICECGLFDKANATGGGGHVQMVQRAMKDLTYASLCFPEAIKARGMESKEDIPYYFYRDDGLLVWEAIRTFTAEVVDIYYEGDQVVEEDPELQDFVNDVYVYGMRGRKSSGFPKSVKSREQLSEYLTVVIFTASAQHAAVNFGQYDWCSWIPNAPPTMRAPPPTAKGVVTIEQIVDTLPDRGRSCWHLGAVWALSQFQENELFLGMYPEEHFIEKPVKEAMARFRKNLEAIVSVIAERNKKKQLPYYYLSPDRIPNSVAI
Excerpt: as §1
This procedure was used for measuring the enzymatic activity of human recombinant 5-lipoxygenase using a colorimetric method based on the ferric oxidation of xylenol orange.
as §2, with “Human recombinant 5-lipoxygenase” for “Porcine leukocyte 12/15-lipoxygenase”, “#60402)” for “#60300)”, “[18M]—Methanol” for “[18M] • Methanol”
as §3, with “Human recombinant 5-lipoxygenase” for “Porcine Leukocyte 12/15-lipoxygenase”, “#60402)” for “#60300)”, “The test” for “Test”, “0.51-1 5-lipoxygenase” for “1.3 U 12/15-lipoxygenase”
as §4
Compounds were screened at 5 concentrations in triplicate starting at 10 μM

SMILES: Cc1c(C)c2c(c(C)c1O)CCC(C)(c1cccs1)O2 (centres unmarked) [2,5,7,8-Tetramethyl-2-thiophen-2-yl-chroman-6-ol]
- IC50 [1]: < 1000 nM
- EC50 [2]: < 1000 nM
- IC50 [3]: < 1000 nM

SMILES: Cc1cc(C2(C)CCc3c(C)c(O)c(C)c(C)c3O2)c(C)s1 (centres unmarked) [2-(2,5-Dimethyl-thiophen-3-yl)-2,5,7,8-tetramethyl-chroman-6-ol]
- IC50 [1]: < 1000 nM
- EC50 [2]: < 1000 nM
- IC50 [3]: < 1000 nM

SMILES: Cc1cc(C2(C)CCc3cc(O)c(C)c(C)c3O2)c(C)s1 (centres unmarked) [2-(2,5-Dimethyl-thiophen-3-yl)-2,7,8-trimethyl-chroman-6-ol]
- EC50 [2]: < 1000 nM
- IC50 [3]: < 1000 nM

SMILES: Cc1c(C)c2c(c(-c3ccco3)c1O)CCC(C)(C)O2 [5-Furan-2-yl-2,2,7,8-tetramethyl-chroman-6-ol]
- IC50 [1]: < 1000 nM
- EC50 [2]: < 1000 nM
- IC50 [3]: < 1000 nM
